Results from patent publication US11246873B2, “Directed differentiation of oligodendrocyte precursor cells to a myelinating cell fate” (The Scripps Research Institute, priority 2011, dated 2022).
Entries after “also recorded” stand apart in the source; their conditions may differ. Where two headings read alike, the source gives them in different places.

How the values were obtained:
[1] = tested on: PLP induced EAE mice; conditions: for clinical severity versus vehicle, prophylactic mode: 10 mg/kg i.p. daily from the day of PLP injection; for dose dependence of clinical EAE scores: various doses i.p. (FTY720 1, 0.1, 0.01 mg/kg; interferon-β 10,000, 3000, 1000 U per mouse)
Description: (A-E) SJL mice were immunized with proteolipid peptide (PLP) and pertussis toxin and monitored daily with scoring on the standard clinical EAE scale (0-5). Compounds were administered daily for the duration of the study in saline at 10 mg/kg via intra-peritoneal injection (0.1 ml), starting on the day of the appearance of clinical EAE symptoms (day 10). […] Mean clinical EAE score and standard error of mean (SEM) are shown for each study group.
FIG. 25. […] EAE was induced in mice using PLP and pertussis toxin. […] Prophylactic dosing is defined as administration of compound commenced on the day of PLP injection. Error bars indicate standard deviation of the mean within each group of 8 mice.
(A-F) EAE was induced in mice using PLP and pertussis toxin. […] Error bars indicate standard deviation of the mean within each group of 8 mice.
(A-F) EAE was induced in mice by injecting PLP in complete Freund's adjuvant (CFA) and pertussis toxin, and the animals were scored daily for clinical severity of disease on a scale of 0-5. […] Error bars indicate standard deviation of the mean within each group of 8-10 mice.
10 week old SJL mice were immunized with PLP emulsion and pertusis toxin to induce EAE. […] Compounds were administered daily via intraperitoneal injection of 100 ul in sterile saline at 10 mg/kg alone or in combination with mycophenolate motefil in sterile saline at pH 5 at 20 mg/kg. Compound administration was initiated at disease onset (day 10) while mycophenolate motefil administration was initiated on Day 14. The mice were scored daily on a standard EAE scale of 0-5.
This model is most commonly used to evaluate the potential efficacy of immunomodulatory agents, but can also be used to determine the effectiveness of promyelinating agents that function by enhancing OPC differentiation (M. Fernandez et al., Proc Natl Acad Sci U.S.A, 101, 16363 (2004); X. Lee et al., J Neurosci, 27, 220 (2007); reviewed in R. J. Franklin, C. Ffrench-Constant, Nat Rev Neurosci, 9, 839 (2008)). […] We next evaluated efficacy when the drug is dosed therapeutically, by starting daily injections at the first sign of disease onset.
For the treatment of MS, an OPC differentiation inducing drug would most likely be introduced clinically as part of a combination therapy with an immunosuppressive drug. […] The former reduces T-cell proliferation and alters cytokine expression (A. Noronha, A. Toscas, M. A. Jensen, J Neuroimmunol, 46, 145 (1993); A. Noronha, A. Toscas, M. A. Jensen, Ann Neurol, 27, 207 (1990)), while the latter is an S1P agonist that regulates T-cell trafficking (V. Brinkmann et al., J Biol Chem, 277, 21453 (2002); V. Brinkmann et al., Nat Rev Drug Discov, 9, 883 (2010)).

[2] = tested on: OPCs; assay: qRT-PCR of cell cycle genes in OPCs; type: cell-based, rat; conditions: benztropine 1.5 uM
Text: OPCs express mAChRs, predominantly subtypes M1, M3, and M5 (F. Ragheb et al., J Neurochem, 77, 1396 (2001)). […] Activation of M1 and M3 mAChRs is coupled to downstream signal transduction events through phospholipase C, which results in increased intracellular calcium concentrations (F. Ragheb et al., J Neurochem, 77, 1396 (2001)) (FIG. 23C). M2 and M4 mAChR activation inhibits adenylatecyclase, leading to decreased intracellular cAMP levels (C. C. Felder, FASEB J, 9, 619 (1995); M. Lopez-Ilasaca et al., Science, 275, 394 (1997)). […] Acetylcholine is a known regulator of OPC proliferation and, as such, muscarinic receptor subtypes represent a reasonable class of therapeutic targets for the modulation of OPC proliferation and differentiation (F. De Angelis et al., Dev Neurobiol, (2011)).

[3] = tested on: spinal cord of EAE mice; assay: Histology of spinal cord sections from EAE mice (LFB, H&E, GST-π, NG2); type: in vivo, mouse; conditions: for LFB (myelin) staining in areas infiltrated by lymphocytes / lymphocyte / immune cell infiltration (H&E): 10 mg/kg, relapse phase
Text: FIG. 26. […] Spinal cords were isolated from mice representative of the average group scores during the relapse phase of EAE, sectioned and stained with Luxol Fast Blue and H&E (left panel) and Luxol Fast Blue only (right panel). Arrows point to regions of lymphocyte infiltration.

[4] = tested on: splenocytes of EAE mice; conditions: mouse, in vivo, ip, 10 mg/kg
Description: (A-K) EAE was induced in mice by injecting PLP and pertussis toxin. […] Total splenocytes were isolated from the mice, stimulated with PMA and ionomycin, and analyzed for various populations of immune cells and cytokine secretion after 48 hours. Protein transport was blocked in cells used for cytokine analysis using Monoeiosin. […] Error bars indicate standard deviation of the mean within each group of 5 mice.
(§1) The primary immunological processes involved in MS and EAE are T-cell mediated and the primary treatment paradigms are based on immunomodulatory drugs (T. Kopadze et al., Arch Neurol, 63, 1572 (2006); J. M. Greer et al., J Immunol, 180, 6402 (2007), M. P. Pender and J. M. Greer, curr Allergy Asthma Rep, 7, 285 (2007)).

[5] = tested on: splenocytes of normal mice; assay: Immune cell populations and cytokine production in splenocytes of normal mice; type: in vivo, mouse; conditions: 10 mg/kg i.p., 14 days; for cytokine production (IL2, IL10, TNF, IFN-γ producing CD4+ T-cells) / number of B cells: 10 mg/kg
Text: Total splenocytes were isolated from the mice, stimulated with PMA and ionomycin and analyzed for various populations of immune cells and cytokine secretion after 48 hrs. Protein transport was blocked in cells used for cytokine analysis using monoeiosin. […] Error bars indicate standard deviation of the mean within each group of 5 mice.
as §1

[6] = tested on: C57BL/6 mice fed cuprizone; conditions: for remyelination / myelin staining in the corpus callosum versus vehicle, week 2: 2 weeks after cuprizone withdrawal
Description: Data is represented in terms of threshold bins on the grey scale (0-50) as described. Error bars represent standard deviations of at least 6 corpus callosum regions.
(B) Images were converted to a 256 shade grey scale. (C) The 256 shades of grey were divided into 5 bins of 50 shades each. Number of objects in the corpus callosum region in each bin were counted using Image-Pro plus.
By administering drugs at the time when a cuprizone-free diet is reintroduced, the efficacy of promyelinating agents can be examined by evaluating the relative kinetics of OPC dependent remyelination (T. Skripuletz et al., Am J Pathol, 172, 1053 (2008)). […] Drug or vehicle treated mice were sacrificed in groups of 5 weekly for 5 weeks, following drug treatment, and remyelination was quantitatively evaluated by staining the corpus callosum regions of harvested brains with LFB (FIG. 9A, B).

[7] = spinal cord sections of EAE mice

CN1CCN(CCCN2c3ccccc3Sc3ccc(C(F)(F)F)cc32)CC1 [trifluoperazine]
recovery time following the acute phase ([1]; 10 mg/kg i.p. daily from day 10): modest decrease | mean maximal clinical EAE score in relapse, day 26 ([1]; SJL mice, scale 0-5, 10 mg/kg i.p. daily from day 10, mean ± SEM): 0.4±0.4

CN1[C@@H]2CC[C@H]1C[C@@H](OC(c1ccccc1)c1ccccc1)C2 [benztropine]
effect on clinical severity scores at 0.1 mg/kg ([1]; 0.1 mg/kg): no effect | clinical severity versus vehicle, prophylactic mode [1]: significantly decreased clinical severity in both acute and relapse phase | clinical severity versus vehicle, prophylactic mode ([1]; listed as Benztropine): dramatically decreased the severity of the acute phase of disease and virtually eliminated the observation of a relapse phase; also recorded: decreased the clinical severity of disease | mean maximal clinical EAE score in relapse, day 25 ([1]; SJL mice, scale 0-5, compounds 10 mg/kg i.p. daily from day 10, mycophenolate mofetil 20 mg/kg from day 14, mean ± SEM): 0.2±0.2 | most effective dose in decreasing clinical severity scores ([1]; dose response in EAE model): 12.5 mg/kg | general toxicity ([1]; mouse, in vivo, 10 mg/kg): general toxicity was not observed | dose dependence of clinical EAE scores [1]: Dose dependent activity | dose dependence of clinical EAE scores ([1]; listed as Benztropine): dose dependent efficacy | transcript levels of cyclin D1, cyclin D2, c-Fos, c-Jun [2]: significantly decreased; also recorded: downregulation in cell cycle genes such as Cyclin D1, Cyclin D2, c-Fos, c-Jun | LFB (myelin) staining in areas infiltrated by lymphocytes [3]: a large number of immune cell infiltrated areas stained positive for LFB | lymphocyte / immune cell infiltration (H&E) [3]: significant infiltration by H&E reactive immune cells | LFB (myelin) staining in areas infiltrated by lymphocytes ([3]; listed as Benztropine): significantly increased LFB staining | lymphocyte / immune cell infiltration (H&E) ([3]; listed as Benztropine): does not block lymphocyte infiltration | number of GST-π positive mature oligodendrocytes ([3]; spinal cord of EAE mice, vehicle ~500): 1100 per field | GST-π positive cells versus vehicle [3, 7]: increased GST-π positive cells | number of NG2 positive cells versus vehicle [3, 7]: did not differ significantly; also recorded: no change | number of total splenocytes, CD4+, CD8+, CD4+/CD44Hi and CD8+/CD44Hi T-cells [4]: no effect | number of total splenocytes, CD4+, CD8+, CD4+/CD44Hi and CD8+/CD44Hi T-cells [5]: no effect | cytokine production (IL2, IL10, TNF, IFN-γ producing CD4+ T-cells) [5]: no effect on cytokine production | number of B cells [5]: minor but significant decrease | cytokine production (IL2, IL10, TNF, IFN-γ producing CD4+ T-cells) ([5]; listed as Benztropine): no effect | number of B cells ([5]; listed as Benztropine): no effect | remyelination / myelin staining in the corpus callosum versus vehicle, week 2 ([6]; 10 mg/kg i.p.): significant increase in myelin staining in the corpus callosum | remyelination / myelin staining in the corpus callosum versus vehicle, week 2 ([6]; 10 mg/kg i.p., listed as benzatropine): increased remyelination | increase in myelin staining in the corpus callosum versus vehicle ([6]; 10 mg/kg i.p., 2 weeks after drug treatment): ~2 fold | myelin staining versus vehicle at later time points ([6]; 10 mg/kg i.p., up to 5 weeks): significant differences were not observed | toxicity to mature oligodendrocytes ([6]; mouse, in vivo): not toxic to mature oligodendrocytes
